From paper PMC8286840, “Identifying SARS-CoV-2 antiviral compounds by screening for small molecule inhibitors of Nsp3 papain-like protease” (Biochemical Journal, 2021)
Counter-ions that a name gives are not always drawn. Like-named read-outs stand apart in the source and are kept apart here. Where a SMILES comes first, the peptide text is derived from it. [ ]: non-standard residue; d: D form. dPhe(4-Cl) = N[C@H](Cc1ccc(Cl)cc1)C(=O)O; d2Nal = N[C@H](Cc1ccc2ccccc2c1)C(=O)O; Lys(iPr) = CC(C)NCCCC[C@H](N)C(=O)O; NMeY = CN[C@@H](Cc1ccc(O)cc1)C(=O)O; d3Pal = N[C@H](Cc1cccnc1)C(=O)O

Legend:
[1] = target: T1, SARS-CoV-2 PLpro (nsp3 1564–1878) (Severe acute respiratory syndrome coronavirus 2, UniProt P0DTD1); test: biochemical; set-up: FRET-quenched peptide (Pro3) cleavage by PLpro, 10 min pre-incubation, slope over 20 min, normalised to no-compound control; conditions: high concentration screen, read-out: % of control remaining
[2] = target: T1, SARS-CoV-2 PLpro (nsp3 1564–1878); test: biochemical; set-up: FRET-quenched peptide (Pro3) cleavage by PLpro, 10 min pre-incubation, slope over 20 min, normalised to no-compound control; conditions: low concentration screen, read-out: % of control remaining

**Q.** For `CC(C)[C@H](N)C(=O)N[C@@H](Cc1ccccc1)C(=O)O` [L-Valyl-L-phenylalanine] (H-Val-Phe-OH), which remaining activity at 3.75 µM ([1]; Well no.=8650) is on record?
**A.** 101%

**Q.** And the remaining activity at 1.25 µM ([2]; Well no.=8650)?
**A.** 103%

**Q.** For `COC(=O)[C@H]1[C@H]2C[C@H]3c4[nH]c5ccccc5c4CCN3C[C@H]2CC[C@@H]1O` [Rauwolscine hydrochloride], which remaining activity at 3.75 µM ([1]; Well no.=1400) is on record?
**A.** 99%

**Q.** And the remaining activity at 1.25 µM ([2]; Well no.=1400)?
**A.** 100%

**Q.** `Cc1cc(Cn2nnc3c(-c4ccco4)nc(N)nc32)ccc1N` [Vipadenant] was tested. Which remaining activity at 3.75 µM ([1]; Well no.=8603) did it give?
**A.** 92.7%

**Q.** What about the remaining activity at 1.25 µM ([2]; Well no.=8603) of the same compound?
**A.** 95.2%

**Q.** Which remaining activity at 3.75 µM ([1]; Well no.=3555) does the source give for `COc1ccc2cc1Oc1ccc(cc1)C[C@H]1c3c(cc4c(c3Oc3cc5c(cc3OC)CCN(C)[C@@H]5C2)OCO4)CCN1C` [Cepharanthine] here?
**A.** 106%

**Q.** What about the remaining activity at 1.25 µM ([2]; Well no.=3555) of the same compound?
**A.** 102%

**Q.** `CC(=O)c1c(C)c2cnc(Nc3ccc(N4CCNCC4)cn3)nc2n(C2CCCC2)c1=O` [Palbociclib (hydrochloride)] was tested. Which remaining activity at 3.75 µM ([1]; Well no.=7350) did it give?
**A.** 97.5%

**Q.** And the remaining activity at 1.25 µM ([2]; Well no.=7350)?
**A.** 96.3%

**Q.** Which remaining activity at 3.75 µM ([1]; Well no.=5649) does the source give for `CC(C)/N=c1\cc2n(-c3ccc(Cl)cc3)c3ccccc3nc-2cc1Nc1ccc(Cl)cc1` [Clofazimine] here?
**A.** 100%

**Q.** And the remaining activity at 1.25 µM ([2]; Well no.=5649)?
**A.** 101%

**Q.** How did the remaining activity at 3.75 µM ([1]; Well no.=2036) turn out when `C[C@]12CC[C@@H]3c4ccc(O)cc4CC[C@H]3[C@@H]1C[C@@H](O)[C@@H]2O` [Estriol] was run?
**A.** 104%

**Q.** What about the remaining activity at 3.75 µM ([1]; Well no.=6489) of the same compound?
**A.** 108%

**Q.** And the remaining activity at 1.25 µM ([2]; Well no.=2036)?
**A.** 105%

**Q.** What about the remaining activity at 1.25 µM ([2]; Well no.=6489) of the same compound?
**A.** 104%

**Q.** Which remaining activity at 3.75 µM ([1]; Well no.=7757) does the source give for `COc1ccc(S(=O)(=O)Nc2c(C)cc(C)cc2C)cc1` [GSK137647A] here?
**A.** 103%

**Q.** What about the remaining activity at 1.25 µM ([2]; Well no.=7757) of the same compound?
**A.** 103%

**Q.** Which results are given for `Nc1ccc(-c2ccc3ncc4ccc(=O)n(-c5cccc(C(F)(F)F)c5)c4c3c2)cn1` [Torin 2]?
**A.** remaining activity at 3.75 µM ([1]; Well no.=4787): 97.9%; remaining activity at 1.25 µM ([2]; Well no.=4787): 95.6%

**Q.** With `CC(=O)N[C@H](Cc1ccc2ccccc2c1)C(=O)N[C@H](Cc1ccc(Cl)cc1)C(=O)N[C@H](Cc1cccnc1)C(=O)N[C@@H](CO)C(=O)N(C)[C@@H](Cc1ccc(O)cc1)C(=O)N[C@H](CC(N)=O)C(=O)N[C@@H](CC(C)C)C(=O)N[C@@H](CCCCNC(C)C)C(=O)N1CCC[C@H]1C(=O)N[C@H](C)C(N)=O` [Abarelix] (Ac-[d2Nal][dPhe(4-Cl)][d3Pal]S[NMeY][dN]L[Lys(iPr)]P[dA]-NH2) as the compound, how does the remaining activity at 3.75 µM ([1]; Well no.=6560) read?
**A.** 98.6%

**Q.** What about the remaining activity at 1.25 µM ([2]; Well no.=6560) of the same compound?
**A.** 95.8%

**Q.** Which remaining activity at 3.75 µM ([1]; Well no.=4409) does the source give for `CCCCCCCCCCCCC/C=C/[C@@H](O)[C@H](CO)NCCCCCCCC` [C8 Ceramine] here?
**A.** 95.2%

**Q.** And the remaining activity at 1.25 µM ([2]; Well no.=4409)?
**A.** 101%

**Q.** How did the remaining activity at 3.75 µM ([1]; Well no.=6633) turn out when `CC(C)C[C@H](O)C(=O)O` [(S)-Leucic acid] was run?
**A.** 109%

**Q.** What about the remaining activity at 1.25 µM ([2]; Well no.=6633) of the same compound?
**A.** 108%

**Q.** What does the source list for `CCOCc1cc(OC)c(-c2ccc(C[C@H](NC(=O)c3c(F)cccc3F)C(=O)O)cc2)c(OC)c1` [Firategrast]?
**A.** remaining activity at 3.75 µM ([1]; Well no.=7930): 99%; remaining activity at 1.25 µM ([2]; Well no.=7930): 103%

**Q.** Which remaining activity at 3.75 µM ([1]; Well no.=628) does the source give for `CCCCCCCCCCCCCCC[C@H](O)[C@H](N)CO` (racemic) [DL-erythro-Dihydrosphingosine] here?
**A.** 93.6%

**Q.** What about the remaining activity at 1.25 µM ([2]; Well no.=628) of the same compound?
**A.** 95.5%

**Q.** With `CC1(C)S[C@@H]2[C@H](NC(=O)[C@H](C(=O)O)c3ccsc3)C(=O)N2[C@H]1C(=O)O` [Ticarcillin (disodium)] as the compound, how does the remaining activity at 3.75 µM ([1]; Well no.=7782) read?
**A.** 109%

**Q.** What about the remaining activity at 1.25 µM ([2]; Well no.=7782) of the same compound?
**A.** 105%

**Q.** What does the source list for `COc1cccc2oc(-c3ccccc3)cc(=O)c12` [5-Methoxyflavone]?
**A.** remaining activity at 3.75 µM ([1]; Well no.=3453): 90.5%; remaining activity at 1.25 µM ([2]; Well no.=3453): 92.1%

**Q.** With `CO[C@H]1C[C@@H]2CC[C@@H](C)[C@@](O)(O2)C(=O)C(=O)N2CCCC[C@H]2C(=O)O[C@H]([C@H](C)C[C@@H]2CC[C@H](n3ncnn3)[C@H](OC)C2)CC(=O)[C@H](C)/C=C(\C)[C@@H](O)[C@@H](OC)C(=O)[C@H](C)C[C@H](C)/C=C/C=C/C=C/1C` [42-(2-Tetrazolyl)rapamycin] as the compound, how does the remaining activity at 3.75 µM ([1]; Well no.=7592) read?
**A.** 91.6%

**Q.** What about the remaining activity at 1.25 µM ([2]; Well no.=7592) of the same compound?
**A.** 91%

**Q.** What does the source list for `c1c2c(cc3c1OCO3)-c1cc3ccc4c(c3c[n+]1CC2)OCO4` [Coptisine (chloride)]?
**A.** remaining activity at 3.75 µM ([1]; Well no.=8071): 101%; remaining activity at 1.25 µM ([2]; Well no.=8071): 106%

**Q.** `Cc1ncc(COP(=O)(O)O)c(C=O)c1O` [Pyridoxal phosphate] was tested. Which remaining activity at 3.75 µM ([1]; Well no.=6389) did it give?
**A.** 101%

**Q.** What about the remaining activity at 1.25 µM ([2]; Well no.=6389) of the same compound?
**A.** 103%
